The values below come from patent US11858951B2, “Boronic acid derivatives” (Merck Patent GmbH, priority 2017, dated 2024).

Test [1] addresses LMP7 subunit of the immunoproteasome (Homo sapiens, UniProt P28062). The conditions noted are these: background, Singh et al 2011; cited from earlier work.
The target in test [2] is LMP7 (purified human immuno proteasome) (Homo sapiens, UniProt P28062). Put plainly: Determination of LMP7 activity (fluorescence intensity assay, Suc-LLVY-AMC). It counts as biochemical. The conditions noted are these: incubation for 20 minutes at 25° C.; concentrations 30 μM to 15 pM; read-out: LMP7 IC50. How it is done: Biological Activity Determination of LMP7 Activity:
Measurement of LMP7 inhibition is performed in 384 well format based on fluorescence intensity assay.
(§1) Purified human immuno proteasome (0.25 nM) and serial diluted compounds in DMSO (range of concentrations from 30 μM to 15 pM) or controls are incubated for 20 minutes or 120 minutes (long incubation) at 25° C. in assay buffer containing 50 mM Tris pH 7.4, 0.03% SDS, 1 mM EDTA and 1% DMSO. The reaction is initiated by the addition of the fluorogenic peptide substrate, Suc-LLVY-AMC (Bachem 1-1395), at a concentration of 40 μM. After 60 minutes of incubation at 37° C., fluorescence intensity is measured at λex=350 nm and λem=450 nm with a fluorescence reader (Perkin Elmer Envision reader or equivalent).
(§2) Unless indicated otherwise the results are obtained after incubation for 20 minutes.

Test [3] has as its target Beta5 (purified human constitutive proteasome) (Homo sapiens, UniProt P28074). Put plainly: Determination of Beta5 activity (fluorescence intensity assay, Suc-LLVY-AMC). It counts as biochemical. The conditions noted are these: incubation for 20 minutes at 25° C.; concentrations 30 μM to 15 pM; read-out: Beta5 IC50. How it is done: Determination of Beta5 Activity:
Measurement of Beta5 inhibition is performed in 384 well format based on fluorescence intensity assay.
as §1, with “constitutive” for “immuno”, “(1.25” for “(0.25”
as §2

For the compound `CC1=C(C(=O)N[C@H](C)C(=O)N[C@@H](Cc2c[nH]c3ccccc23)C(=O)N[C@@H](Cc2ccccc2)C(=O)[C@@]2(C)CO2)Cc2ccccc21` [PR-924], in test [1], the “selectivity for the LMP7 subunit of the immunoproteasome” value is listed as 100 fold.

In general, IC50 refers to the concentration at which inhibition is half-maximal. As to `O=C(N[C@@H](CCc1ccccc1)B(O)O)[C@@H]1C[C@H]2CC[C@@H]1O2` [compound 27, [(1R)-1-{[(1S,2R,4R)-7-oxabicyclo[2.2.1]heptan-2-yl]formamido}-3-phenylpropyl]boronic acid], the IC50 was 0.5 to 5 µM in test [2] and above 30 µM in test [3].

In the case of `CC(C)C[C@H](NC(=O)[C@@H]1C[C@H]2CC[C@@H]1O2)B(O)O` [compound 28, [(1R)-3-methyl-1-{[(1S,2R,4R)-7-oxabicyclo[2.2.1]heptan-2-yl]formamido}butyl]boronic acid], the IC50 in test [2] is 0.5 to 5 µM; in test [3] it was above 30 µM.
